# Experiments:
# Assay type in all cases: in vivo
# [1] = test system: RCHBR = Richardia brasiliensis; test: Field weed control, early post-emergence application; conditions: gai/ha Imazapyr 72, Imazapyr + imazapic 70, Glyphosate 540
# [2] = test system: COMBE = Commelina benghalensis; test: as above; conditions: gai/ha Imazapyr 72, Imazapyr + imazapic 70, Glyphosate 540
# [3] = test system: glyphosate resistant horseweed; test: Greenhouse injury rate, preemergence application; conditions: 25 DAT
# Experimental: (§1) Greenhouse studies were conducted to determine whether imidazolinone herbicides could be used in the control of undesired glyphosate tolerant weeds and crops growing in a cultivated area. […] Plants were maintained in a greenhouse with overhead watering.
# (§2) Postemergence sprays were conducted at the 2-true leaf stage for corn and soybean and at the 9-true leaf stage for horseweed. […] The percent overall injury rate was visually determined 14 days after treatment (DAT) and 25 days after treatment (DAT). […] The results of the postemergence tests are summarized in Table 20 and the results of the pre-emergence study are summarized in Table 21. Results are provided as averages of the 5 individual plants.
# [4] = test system: glyphosate resistant corn; test: Greenhouse injury rate, preemergence application; conditions: 14 DAT
# Experimental: as §1, §2
# [5] = test system: glyphosate resistant soybean; test: Greenhouse injury rate, preemergence application; conditions: 14 DAT
# Experimental: as §1, §2
# [6] = test system: BOILF = Spermacoce latifolia; test: Field weed control, early post-emergence application; conditions: gai/ha Imazapyr 72, Imazapyr + imazapic 70, Glyphosate 540
# CYPRO = Cyperus rotundus [7] = test: as above; conditions: gai/ha Imazapyr 72, Imazapyr + imazapic 70, Glyphosate 540
# [8] = test system: EPHHL = Euphorbia heterophylla; test: as above; conditions: gai/ha Imazapyr 72, Imazapyr + imazapic 70, Glyphosate 540
# [9] = test system: glyphosate resistant horseweed; test: Greenhouse injury rate, postemergence application
# Experimental: as §1, §2
# [10] = test system: glyphosate resistant corn; test: Greenhouse injury rate, postemergence application; conditions: 14 DAT
# Experimental: as §1, §2
# [11] = test system: glyphosate resistant soybean; test: Greenhouse injury rate, postemergence application; conditions: 14 DAT
# Experimental: as §1, §2
# [12] = test system: IPOGR = Ipomoea grandifolia; test: Field weed control, early post-emergence application; conditions: gai/ha Imazapyr 72, Imazapyr + imazapic 70, Glyphosate 540
# SIDRH = Sida rombifolia = test: as above; conditions: gai/ha Imazapyr 72, Imazapyr + imazapic 70, Glyphosate 540
# [13] = test system: EPHHL = Euphorbia heterophylla; test: Field weed control, burn down application; conditions: burn down 5 days before planting, g ai/ha Glyphosate 1080, Imazapic 70, Imazapic + imazapyr 70
# Excerpt: (§3) All the procedures from planting to harvest were the same for all three locations. The herbicides were applied at burn down five days before the soybean planting.
# (§4) A completely randomized block design with three replications was used.
# (§5) Imidazolinone-tolerant soybean derived from event 127 was planted 5 cm deep at population of 380,000 seeds/ha in 50 cm row spacing. The imidazolinones herbicides were applied with a nonionic adjuvant, Dash, at 0.25% v/v. A CO^2 backpack sprayer with 80015 low pressure nozzles delivering 170 l/ha at 190 kpa was used for all herbicide applications (Table 18).
# (§6) Crop injury was assessed 15 and 30 days after planting (DAP) based on a 0 to 100 scale where 0 is no injury and 100 is crop death. Herbicide efficacy was assessed at 15, 30 and 60 DAP based on a 0 to 100 scale, where 0 is no control and 100 is total control.
# [14] = test system: COMBE = Commelina benghalensis; test: Field weed control, burn down application; conditions: burn down 5 days before planting, g ai/ha Glyphosate 1080, Imazapic 70, Imazapic + imazapyr 70
# Excerpt: as §3, §4, §5, §6
# [15] = test system: IPOGR = Ipomoea grandifolia; test: Field weed control, burn down application; conditions: burn down 5 days before planting, g ai/ha Glyphosate 1080, Imazapic 70, Imazapic + imazapyr 70
# Excerpt: as §3, §4, §5, §6
# BIDPI = Bidens pilosa = test: Field weed control, burn down application; conditions: burn down 5 days before planting, g ai/ha Glyphosate 1080, Imazapic 70, Imazapic + imazapyr 70
# Excerpt: as §3, §4, §5, §6
# [16] = test system: DIGHO = Digitaria horizontalis; test: Field weed control, burn down application; conditions: burn down 5 days before planting, g ai/ha Glyphosate 1080, Imazapic 70, Imazapic + imazapyr 70
# Excerpt: as §3, §4, §5, §6
# [17] = test system: GASPA = Galinsoga parviflora; test: Field weed control, burn down application; conditions: burn down 5 days before planting, g ai/ha Glyphosate 1080, Imazapic 70, Imazapic + imazapyr 70
# Excerpt: as §3, §4, §5, §6
# [18] = test system: BRAPL = Brachiaria plantaginea; test: Field weed control, burn down application; conditions: burn down 5 days before planting, g ai/ha Glyphosate 1080, Imazapic 70, Imazapic + imazapyr 70
# Excerpt: as §3, §4, §5, §6
# CYPRO = Cyperus rotundus [19] = test: Field weed control, burn down application; conditions: burn down 5 days before planting, g ai/ha Glyphosate 1080, Imazapic 70, Imazapic + imazapyr 70
# Excerpt: as §3, §4, §5, §6
smiles,measurement,setting,value
CC(C)C1(C)N=C(c2ncccc2C(=O)O)NC1=O (stereo not drawn) [imazapyr],Efficacy,[1]; 15 DAT,86%
same,Efficacy,[1]; 30 DAT,83%
same,Efficacy,[1]; 60 DAT,77%
same,Efficacy,[2]; 15 DAT,93%
same,Efficacy,[2]; 30 DAT,87%
same,Efficacy,[2]; 60 DAT,80%
same,Average Overall Injury (%),[3]; 20 g ai/ha,46%
same,Average Overall Injury (%),[3]; 40 g ai/ha,63%
same,Average Overall Injury (%),[3]; 80 g ai/ha,84%
same,Average Overall Injury (%),[3]; 120 g ai/ha,96%
same,Average Overall Injury (%),[3]; 240 g ai/ha,88%
same,Average Overall Injury (%),[4]; 20 g ai/ha,37%
same,Average Overall Injury (%),[4]; 40 g ai/ha,47%
same,Average Overall Injury (%),[4]; 80 g ai/ha,65%
same,Average Overall Injury (%),[4]; 120 g ai/ha,81%
same,Average Overall Injury (%),[4]; 240 g ai/ha,91%
same,Average Overall Injury (%),[5]; 20 g ai/ha,41%
same,Average Overall Injury (%),[5]; 40 g ai/ha,43%
same,Average Overall Injury (%),[5]; 80 g ai/ha,66%
same,Average Overall Injury (%),[5]; 120 g ai/ha,83%
same,Average Overall Injury (%),[5]; 240 g ai/ha,87%
same,Efficacy,[6]; 15 DAT,88%
same,Efficacy,[6]; 30 DAT,83%
same,Efficacy,[6]; 60 DAT,75%
same,Efficacy,CYPRO = Cyperus rotundus [7]; 15 DAT,95%
same,Efficacy,CYPRO = Cyperus rotundus [7]; 30 DAT,87%
same,Efficacy,CYPRO = Cyperus rotundus [7]; 60 DAT,81%
same,Efficacy,[8]; 15 DAT,92%
same,Efficacy,[8]; 30 DAT,85%
same,Efficacy,[8]; 60 DAT,83%
same,Average Overall Injury (%),"[9]; 14 DAT, 20 g ai/ha",70%
same,Average Overall Injury (%),"[9]; 14 DAT, 40 g ai/ha",79%
same,Average Overall Injury (%),"[9]; 14 DAT, 80 g ai/ha",90%
same,Average Overall Injury (%),"[9]; 14 DAT, 120 g ai/ha",96%
same,Average Overall Injury (%),"[9]; 14 DAT, 240 g ai/ha",97%
same,Average Overall Injury (%),"[9]; 25 DAT, 20 g ai/ha",44%
same,Average Overall Injury (%),"[9]; 25 DAT, 40 g ai/ha",73%
same,Average Overall Injury (%),"[9]; 25 DAT, 80 g ai/ha",97%
same,Average Overall Injury (%),"[9]; 25 DAT, 120 g ai/ha",99%
same,Average Overall Injury (%),"[9]; 25 DAT, 240 g ai/ha",99%
same,Average Overall Injury (%),[10]; 20 g ai/ha,96%
same,Average Overall Injury (%),[10]; 40 g ai/ha,98%
same,Average Overall Injury (%),[10]; 80 g ai/ha,99%
same,Average Overall Injury (%),[10]; 120 g ai/ha,100%
same,Average Overall Injury (%),[10]; 240 g ai/ha,100%
same,Average Overall Injury (%),[11]; 20 g ai/ha,75%
same,Average Overall Injury (%),[11]; 40 g ai/ha,96%
same,Average Overall Injury (%),[11]; 80 g ai/ha,97%
same,Average Overall Injury (%),[11]; 120 g ai/ha,98%
same,Average Overall Injury (%),[11]; 240 g ai/ha,99%
same,Efficacy,[12]; 15 DAT,96%
same,Efficacy,[12]; 30 DAT,91%
same,Efficacy,[12]; 60 DAT,85%
same,Efficacy,SIDRH = Sida rombifolia; 15 DAT,94%
same,Efficacy,SIDRH = Sida rombifolia; 30 DAT,87%
same,Efficacy,SIDRH = Sida rombifolia; 60 DAT,81%
"O=C(O)CNCP(=O)(O)O [Glyphosate, glyphosate]",Efficacy,[1]; 15 DAT,78%
same,Efficacy,[1]; 30 DAT,57%
same,Efficacy,[2]; 15 DAT,70%
same,Efficacy,[2]; 30 DAT,61%
same,Efficacy,[2]; 60 DAT,50%
same,Efficacy (%),[13]; 30 DAT,15%
same,Efficacy (%),[13]; 60 DAT,7%
same,Average Overall Injury (%),[3]; 774 g ae/ha,0%
same,Average Overall Injury (%),[4]; 774 g ae/ha,0%
same,Average Overall Injury (%),[5]; 774 g ae/ha,0%
same,Efficacy,[6]; 15 DAT,82%
same,Efficacy,[6]; 30 DAT,75%
same,Efficacy,[6]; 60 DAT,68%
same,Efficacy (%),[14]; 30 DAT,38%
same,Efficacy (%),[14]; 60 DAT,22%
same,Efficacy,[8]; 15 DAT,85%
same,Efficacy,[8]; 30 DAT,77%
same,Efficacy,[8]; 60 DAT,72%
same,Average Overall Injury (%),"[9]; 14 DAT, 774 g ae/ha",34%
same,Average Overall Injury (%),"[9]; 25 DAT, 774 g ae/ha",16%
same,Average Overall Injury (%),[10]; 774 g ae/ha,1%
same,Average Overall Injury (%),[11]; 774 g ae/ha,1%
same,Efficacy,[12]; 15 DAT,90%
same,Efficacy,[12]; 30 DAT,87%
same,Efficacy,[12]; 60 DAT,73%
same,Efficacy (%),[15]; 30 DAT,23%
same,Efficacy (%),[15]; 60 DAT,15%
same,Efficacy,SIDRH = Sida rombifolia; 15 DAT,82%
same,Efficacy,SIDRH = Sida rombifolia; 30 DAT,77%
same,Efficacy,SIDRH = Sida rombifolia; 60 DAT,70%
same,Efficacy (%),BIDPI = Bidens pilosa; 30 DAT,25%
same,Efficacy (%),BIDPI = Bidens pilosa; 60 DAT,21%
same,Efficacy (%),[16]; 30 DAT,60%
same,Efficacy (%),[16]; 60 DAT,41%
same,Efficacy (%),[17]; 30 DAT,19%
same,Efficacy (%),[17]; 60 DAT,12%
same,Efficacy (%),[18]; 60 DAT,25%
"Cc1cnc(C2=NC(=O)C(C)(C(C)C)N2)c(C(=O)O)c1 (stereo not drawn) [Imazapic, imazapic]",Efficacy (%),[13]; 30 DAT,98%
same,Efficacy (%),[13]; 60 DAT,86%
same,Average Overall Injury (%),[3]; 20 g ai/ha,65%
same,Average Overall Injury (%),[3]; 40 g ai/ha,90%
same,Average Overall Injury (%),[3]; 80 g ai/ha,99%
same,Average Overall Injury (%),[3]; 160 g ai/ha,99%
same,Average Overall Injury (%),[3]; 240 g ai/ha,99%
same,Average Overall Injury (%),[4]; 20 g ai/ha,32%
same,Average Overall Injury (%),[4]; 40 g ai/ha,38%
same,Average Overall Injury (%),[4]; 80 g ai/ha,67%
same,Average Overall Injury (%),[4]; 160 g ai/ha,86%
same,Average Overall Injury (%),[4]; 240 g ai/ha,90%
same,Average Overall Injury (%),[5]; 20 g ai/ha,12%
same,Average Overall Injury (%),[5]; 40 g ai/ha,39%
same,Average Overall Injury (%),[5]; 80 g ai/ha,60%
same,Average Overall Injury (%),[5]; 160 g ai/ha,70%
same,Average Overall Injury (%),[5]; 240 g ai/ha,81%
same,Efficacy (%),CYPRO = Cyperus rotundus [19]; 30 DAT,88%
same,Efficacy (%),CYPRO = Cyperus rotundus [19]; 60 DAT,76%
same,Efficacy (%),[14]; 30 DAT,75%
same,Efficacy (%),[14]; 60 DAT,64%
same,Average Overall Injury (%),"[9]; 14 DAT, 20 g ai/ha",56%
same,Average Overall Injury (%),"[9]; 14 DAT, 40 g ai/ha",59%
same,Average Overall Injury (%),"[9]; 14 DAT, 80 g ai/ha",80%
same,Average Overall Injury (%),"[9]; 14 DAT, 160 g ai/ha",92%
same,Average Overall Injury (%),"[9]; 14 DAT, 240 g ai/ha",94%
same,Average Overall Injury (%),"[9]; 25 DAT, 20 g ai/ha",27%
same,Average Overall Injury (%),"[9]; 25 DAT, 40 g ai/ha",28%
same,Average Overall Injury (%),"[9]; 25 DAT, 80 g ai/ha",69%
same,Average Overall Injury (%),"[9]; 25 DAT, 160 g ai/ha",77%
same,Average Overall Injury (%),"[9]; 25 DAT, 240 g ai/ha",88%
same,Average Overall Injury (%),[10]; 20 g ai/ha,83%
same,Average Overall Injury (%),[10]; 40 g ai/ha,87%
same,Average Overall Injury (%),[10]; 80 g ai/ha,93%
same,Average Overall Injury (%),[10]; 160 g ai/ha,99%
same,Average Overall Injury (%),[10]; 240 g ai/ha,99%
same,Average Overall Injury (%),[11]; 20 g ai/ha,35%
same,Average Overall Injury (%),[11]; 40 g ai/ha,61%
same,Average Overall Injury (%),[11]; 80 g ai/ha,71%
same,Average Overall Injury (%),[11]; 160 g ai/ha,87%
same,Average Overall Injury (%),[11]; 240 g ai/ha,96%
same,Efficacy (%),[15]; 30 DAT,75%
same,Efficacy (%),[15]; 60 DAT,73%
same,Efficacy (%),BIDPI = Bidens pilosa; 30 DAT,79%
same,Efficacy (%),BIDPI = Bidens pilosa; 60 DAT,73%
same,Efficacy (%),[16]; 30 DAT,95%
same,Efficacy (%),[16]; 60 DAT,86%
same,Efficacy (%),[17]; 30 DAT,84%
same,Efficacy (%),[17]; 60 DAT,78%
same,Efficacy (%),[18]; 30 DAT,85%
same,Efficacy (%),[18]; 60 DAT,79%

# From patent US9961848B2, “Soybean event 127 and methods related thereto” (EMPRESA BRASILEIRA DE PESQUISA AGROPECUARIA—EMBRAPA, priority 2009, dated 2018)
